Consider 32 compounds from patent US10213415B2, “Compounds as opioid receptor modulators” (JANSSEN PHARMACEUTICA NV, priority 2004, dated 2019).

The structures appear in SMILES notation. Bounds are passed on as bounds.

Experiment [1] has as its target T1, human delta subtype 2 opioid receptor (Homo sapiens, UniProt P41143).
T1 construct: purchased Perkin Elmer RBHODM400UA; host or cells: Chinese Hamster Ovary cells (recombinant expression)
The experiment is described as follows: Human Delta Opioid Receptor Binding Assay (CHO membranes, 3H-Naltrindole). Conditions: read-out: hKi δ. How it is done:
This assay is designed to test the ability of a compound to interfere with the binding of tritiated Naltrindole to the human delta subtype 2 opioid receptor. Membranes from Chinese Hamster Ovary cells expressing the human delta subtype 2 opioid receptor (Perkin Elmer #RBHODM400UA) are homogenized in assay buffer (50 mM Tris, pH 7.5 with 5 mM MgCl2) using a glass tissue grinder, Teflon pestle and a Steadfast Stirrer (Fisher Scientific). The concentration of membranes is adjusted to 100 μg/mL in assay buffer and 100 μL is dispensed into each well of the assay plate, a 96 well round bottom polypropylene plate. Compounds to be tested are solubilized in DMSO (Pierce), 10 mM, then diluted in assay buffer to 6× the desired final concentration. The ligand, ^3H-Naltrindole (Perkin Elmer #NET-1065) is also diluted in assay buffer to 6 nM. In a second 96 well round bottom polypropylene plate, known as the premix plate, 60 μL of the 6× compound is combined with 60 μL of 6 nM ^3H-Naltrindole. From this premix plate 50 μL is transferred to the assay plate containing the membranes, in duplicate. The assay plate is incubated for 30 min at room temperature. A GF/C 96 well filter plate (Perkin Elmer #6005174) is pretreated with 0.3% polyethylenimine for 30 min. The contents of the assay plate are filtered through the filter plate using a Packard Filtermate Harvester, and washed 3 times with 0.9% saline that is 4° C. The filter plate is dried, the underside sealed, and 30 μL Microscint20 (Packard #6013621) added to each well. A Topcount-NXT Microplate Scintillation Counter (Packard) is used to measure emitted energies in the range of 2.9 to 35 KeV. Results are compared to maximum binding, wells receiving no inhibitors. Nonspecific binding is determined in the presence of 1 μM unlabelled Naltrindole (Sigma #N115).

In experiment [2] the target is T2, human mu opioid receptor (Homo sapiens, UniProt P35372).
T2 construct: purchased Perkin Elmer RBHOMM400UA; host or cells: Chinese Hamster Ovary cells (recombinant expression)
T2 sequence (P35372 whole entry): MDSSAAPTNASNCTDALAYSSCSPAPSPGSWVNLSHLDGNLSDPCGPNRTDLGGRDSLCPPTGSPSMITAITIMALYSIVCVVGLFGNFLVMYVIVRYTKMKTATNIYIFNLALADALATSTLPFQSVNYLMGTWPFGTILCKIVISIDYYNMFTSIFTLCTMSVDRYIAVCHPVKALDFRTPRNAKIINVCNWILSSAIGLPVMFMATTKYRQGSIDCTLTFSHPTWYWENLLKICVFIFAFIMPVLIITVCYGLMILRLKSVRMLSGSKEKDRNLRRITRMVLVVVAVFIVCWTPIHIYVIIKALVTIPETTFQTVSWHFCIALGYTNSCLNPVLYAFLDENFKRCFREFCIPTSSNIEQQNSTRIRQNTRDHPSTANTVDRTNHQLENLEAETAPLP
Nature of the experiment: Human Mu Opioid Receptor Binding Assay (CHO membranes, 3H-Damgo). The conditions noted are these: read-out: hKi μ. How it is done:
Membranes from Chinese Hamster Ovary cells expressing the human […] opioid receptor (Perkin Elmer #RBHOMM400UA) are homogenized in assay buffer (50 mM Tris, pH 7.5 with 5 mM MgCl2) using a glass tissue grinder, Teflon pestle and a Steadfast Stirrer (Fisher Scientific). The concentration of membranes is adjusted to 300 μg/mL in assay buffer and 100 μL is dispensed into each well of the assay plate, a 96 well round bottom polypropylene plate. Compounds to be tested are solubilized in DMSO (Pierce), 10 mM, then diluted in assay buffer to 6× the desired final concentration. The ligand, ^3H-Damgo (Perkin Elmer #NET-902) is also diluted in assay buffer to 3.6 nM. In a second 96 well round bottom polypropylene plate, known as the premix plate, 60 μL of the 6× compound is combined with 60 μL of 3.6 nM ^3H-Damgo. From this premix plate 50 μL is transferred to the assay plate containing the membranes, in duplicate. The assay plate is incubated for 2 h at room temperature. A GF/C 96 well filter plate (Perkin Elmer #6005174) is pretreated with 0.3% polyethylenimine for 30 min. The contents of the assay plate are filtered through the filter plate using a Packard Filtermate Harvester, and washed 3 times with 0.9% saline that is 4° C. The filter plate is dried, the underside sealed, and 30 μL Microscint20 (Packard #6013621) added to each well. A Topcount-NXT Microplate Scintillation Counter (Packard) is used to measure emitted energies in the range of 2.9 to 35 KeV. […] Nonspecific binding is determined in the presence of 1 μM unlabelled Damgo (Tocris #1171).

In experiment [3] the target is T3, mu opioid receptor (CHO-hMOR cell membranes) (Homo sapiens, UniProt P35372).
T3 construct: purchased Receptor Biology, Inc. (Baltimore, Md.); host or cells: CHO cells (recombinant expression)
T3 sequence (P35372 whole entry): as above
Nature of the experiment: Mu Opioid Receptor Functional Assay: [35S]GTPγS Binding in CHO-hMOR Cell Membranes, Versions 1 and 2. The class given is biochemical. Conditions: for MOR GTP binding assay_v2 (% I): version 2, % inhibition of agonist-stimulated GTPγS binding; for EC50: version 2, read-out: MOR GTP binding assay v2 EC50. The procedure: CHO-hMOR cell membranes were purchased from Receptor Biology, Inc. (Baltimore, Md.). About 10 mg/ml of membrane protein was suspended in 10 mM TRIS-HCl pH 7.2, 2 mM EDTA, 10% sucrose, and the suspension kept on ice. One ml of membranes was added to 15 ml cold binding assay buffer containing 50 mM HEPES, pH 7.6, 5 mM MgCl2, 100 mM NaCl, 1 mM DTT and 1 mM EDTA. The membrane suspension was homogenized with a Polytron and centrifuged at 3,000 rpm for 10 min. The supernatant was then centrifuged at 18,000 rpm for 20 min. The pellet was resuspended in 10 ml assay buffer with a Polytron.
The membranes were preincubated with wheat germ agglutinin coated SPA beads (Amersham) at 25° C. for 45 min in the assay buffer. The SPA bead (5 mg/ml) coupled membranes (10 μg/ml) were then incubated with 0.5 nM [^35S]GTPγS in the assay buffer. […] A range of concentrations of receptor agonists was used to stimulate [^35S]GTPγS binding. Both basal and non-specific binding was tested in the absence of agonist; non-specific binding determination included 10 μM unlabeled GTPγS.
Compounds were tested for function as antagonists by evaluating their potential to inhibit agonist-stimulated GTPγS binding. Radioactivity was quantified on a Packard TopCount. The following parameters were calculated:
[formula] % Inhibition=(% stimulation by 1 μM SNC80−% stimulation by 1 μM SNC80 in presence of test compound)×100/(% Stimulation by 1 μM SNC80−100)
EC50 values were calculated using GraphPad Prism.

T1 sequence (P41143 whole entry): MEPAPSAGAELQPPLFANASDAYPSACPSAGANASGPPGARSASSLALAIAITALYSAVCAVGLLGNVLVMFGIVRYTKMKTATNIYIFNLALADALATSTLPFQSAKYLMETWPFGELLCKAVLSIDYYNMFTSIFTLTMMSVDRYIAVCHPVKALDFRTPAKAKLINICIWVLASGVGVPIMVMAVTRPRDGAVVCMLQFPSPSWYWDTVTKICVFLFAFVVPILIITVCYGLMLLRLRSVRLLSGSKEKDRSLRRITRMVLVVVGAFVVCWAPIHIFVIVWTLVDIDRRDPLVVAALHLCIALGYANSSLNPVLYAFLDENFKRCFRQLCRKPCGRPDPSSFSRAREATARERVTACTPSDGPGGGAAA

Take `Cc1cc(O)cc(C)c1C[C@H](N)C(=O)N(Cc1nc(-c2cccc(Cl)c2)c(C)[nH]1)C(C)C` [Cpd 70]: the Ki in experiment [1] came to 85 nM; in experiment [2] it was 2.6 nM. Regarding `Cc1cc(C(N)=O)cc(C)c1C[C@H](N)C(=O)N(CCc1ccccc1)[C@@H](C)c1nc(-c2ccccc2)c[nH]1` [Cpd 109], the Ki in experiment [1] stood at 77 nM; in experiment [2], 8.2 nM.

On to `Cc1cc(O)cc(C)c1C[C@H](N)C(=O)N(Cc1nc(-c2ccc(-c3ccccc3)cc2)c(C)[nH]1)C(C)C` [Cpd 115], for which the Ki amounted to 321 nM in experiment [1] and 68 nM in experiment [2].

Take `Cc1cc(O)cc(C)c1C[C@H](N)C(=O)N(Cc1nc(-c2ccc(C(N)=O)cc2)c(C)[nH]1)C(C)C` [Cpd 69]: the Ki in experiment [1] came out at 272 nM; in experiment [2], 4.4 nM.

For the compound `Cc1cc(O)cc(C)c1C[C@H](N)C(=O)N(Cc1nc(-c2cccc(C(=O)N(C)C)c2)c(C)[nH]1)C(C)C` [Cpd 67], the Ki in experiment [1] is 438 nM; in experiment [2] it was 4.5 nM. The corresponding values for `Cc1cc(O)cc(C)c1C[C@H](N)C(=O)N(C(C)C)[C@@H](COCc1ccccc1)c1nc(-c2ccccc2)c[nH]1` [Cpd 138] are 1180 nM and 104 nM. In the same order, the values of `Cc1cc(O)cc(C)c1C[C@H](N)C(=O)N(Cc1ccc(O)cc1)[C@@H](C)c1nc(-c2ccccc2)c[nH]1` [Cpd 81] are 15.7 nM and 1.7 nM. `Cc1cc(O)cc(C)c1C[C@H](N)C(=O)N(Cc1nc(-c2ccc(S(C)(=O)=O)cc2)c(C)[nH]1)C(C)C` [Cpd 62]: the Ki in experiment [1] was found to be 69 nM; in experiment [2], 2.4 nM.

With `Cc1cc(O)cc(C)c1C[C@H](N)C(=O)N(Cc1nc(-c2cccc(F)c2)c(C)[nH]1)C(C)C` [Cpd 116], the Ki in experiment [1] worked out at 30.3 nM; in experiment [2], 0.54 nM. The corresponding values for `Cc1cc(O)cc(C)c1C[C@H](N)C(=O)N(CC1CCN(C(=O)OCc2ccccc2)CC1)[C@@H](C)c1nc(-c2ccccc2)c[nH]1` [Cpd 53] are 96 nM and 13.1 nM.

With `Cc1cc(O)cc(C)c1C[C@H](N)C(=O)N(Cc1ccco1)[C@@H](C)c1nc(-c2ccccc2)c[nH]1` [Cpd 54], the Ki in experiment [1] was 172 nM; in experiment [2] it was 1.1 nM. `CC(C)N(C(=O)[C@@H](N)Cc1cccc(C#N)c1)[C@@H](Cc1ccccc1)c1nc(-c2ccccc2)c[nH]1` [Cpd 157]: the Ki in experiment [1] was more than 10000 nM; in experiment [2] it was 2.2 nM.

With `Cc1cc(O)cc(C)c1C[C@H](N)C(=O)N(Cc1nc(-c2cccc(C(N)=O)c2)c(C)[nH]1)C(C)C` [Cpd 73], the values for the Ki in experiment [1] and in experiment [2] were 151 nM and 1.9 nM, respectively. The corresponding values for `Cc1cc(O)cc(C)c1C[C@H](N)C(=O)N(Cc1cccc(Br)c1)[C@@H](C)c1nc(-c2ccccc2)c[nH]1` [Cpd 101] are 47 nM and 24 nM. Take `Cc1cc(O)cc(C)c1C[C@H](N)C(=O)N(Cc1nc(-c2cc(F)ccc2F)c(C)[nH]1)C(C)C` [Cpd 61]: the values for the Ki in experiment [1] and in experiment [2] were 243 nM and 3 nM, respectively. On to `Cc1[nH]c(CN(C(=O)[C@@H](N)Cc2ccc(O)cc2)C(C)C)nc1-c1ccccc1` [Cpd 154], for which the Ki in experiment [1] was more than 10000 nM; in experiment [2], 1 nM.

As to `CC(C)N(C(=O)[C@@H](N)Cc1ccc(O)cc1)[C@@H](Cc1ccccc1)c1nc(-c2ccccc2)c[nH]1` [Cpd 158], the Ki was more than 10000 nM in experiment [1] and 0.23 nM in experiment [2]. As to `CC(=O)Oc1ccc(CN(C(=O)[C@@H](N)Cc2c(C)cc(O)cc2C)[C@@H](C)c2nc(-c3ccccc3)c[nH]2)cc1` [Cpd 88], the Ki in experiment [1] is 16.2 nM; in experiment [2], 5.8 nM. In the case of `Cc1cc(O)cc(C)c1C[C@H](N)C(=O)N(Cc1nc(-c2cccc(S(C)(=O)=O)c2)c(C)[nH]1)C(C)C` [Cpd 72], the Ki is 71 nM in experiment [1] and 1.03 nM in experiment [2]. Consider `Cc1cc(O)cc(C)c1C[C@H](N)C(=O)N(Cc1ccc(N(C)C)cc1)[C@@H](C)c1nc(-c2ccccc2)cn1C` [Cpd 77], for which the Ki in experiment [1] came out at 13.5 nM; in experiment [2] it was 1.8 nM. The corresponding values for `Cc1cc(O)cc(C)c1C[C@H](N)C(=O)N(Cc1cccc(Oc2ccccc2)c1)[C@@H](C)c1nc(-c2ccccc2)c[nH]1` [Cpd 98] are 54 nM and 48 nM. The corresponding values for `CC(C)[C@@H](c1nc(-c2ccccc2)c[nH]1)N(C(=O)[C@@H](N)Cc1cccc(C#N)c1)C(C)C` [Cpd 160] are more than 10000 nM and more than 1000 nM. As for `Cc1cc(O)cc(C)c1C[C@H](N)C(=O)N(Cc1nc(-c2cc(F)cc(F)c2)c(C)[nH]1)C(C)C` [Cpd 126], the Ki in experiment [1] was 164 nM; in experiment [2], 7.8 nM. The corresponding values for `Cc1cc(O)cc(C)c1C[C@H](N)C(=O)N(C(C)C)[C@H](C)c1nc(-c2ccc(F)cc2)c[nH]1` [Cpd 82] are 46 nM and 2.39 nM. In the same order, the values of `Cc1cc(O)cc(C)c1C[C@H](N)C(=O)N(CC1CCCCC1)[C@@H](C)c1nc(-c2ccccc2)c[nH]1` [Cpd 56] are 225 nM and 65.3 nM. Turning to `Cc1cc(C(N)=O)cc(C)c1C[C@H](N)C(=O)N(CCc1ccccc1)[C@H](C)c1nc(-c2ccccc2)c[nH]1` [Cpd 110], the Ki is 1400 nM in experiment [1] and 191 nM in experiment [2]. The corresponding values for `Cc1cc(C(N)=O)cc(C)c1C[C@H](N)C(=O)N(Cc1ccccc1)[C@@H](C)c1nc(-c2ccc(C(F)(F)F)cc2)c(C)[nH]1` [Cpd 74] are 63 nM and 9.8 nM. As for `Cc1[nH]c(CN(C(=O)[C@@H](N)Cc2ccc(O)cc2)C(C)C)nc1-c1ccsc1` [Cpd 152], the Ki in experiment [1] is more than 10000 nM. Turning to `COc1ccc(CN(C(=O)[C@@H](N)Cc2c(C)cc(C(N)=O)cc2C)[C@@H](C)c2nc(-c3ccccc3)c[nH]2)cc1-c1nnn(C(C)(C)C)n1` [Cpd 309], in experiment [3], the “MOR GTP binding assay_v2 (% I)” value worked out at 47.00% and the EC50 was 23 nM. As to `Cc1[nH]c(CN(C(=O)[C@@H](N)Cc2ccc(O)cc2)C(C)C)nc1-c1cccnc1` [Cpd 153], the Ki in experiment [1] is more than 10000 nM. For `Cc1cc(C(N)=O)cc(C)c1C[C@H](N)C(=O)N(Cc1ccnc(C(=O)O)c1)[C@@H](C)c1nc(-c2ccccc2)c[nH]1` [Cpd 316], in experiment [3], the “MOR GTP binding assay_v2 (% I)” value stood at 76% and the EC50 is 24.1 nM. On to `Cc1cc(O)cc(C)c1C[C@H](N)C(=O)N(Cc1nc(-c2ccccc2-c2ccccc2)c(C)[nH]1)C(C)C` [Cpd 145], for which, in experiment [1], the Ki came to 267 nM.
